In patent US11492589B2, “Lactobacillus plantarum CJLP475 strain having antiviral and immunomodulatory effects and composition comprising the same” (CJ CHEILJEDANG CORPORATION, priority 2018, dated 2022):

Each compound was assayed on Lactobacillus plantarum CJLP475 strain (assay: Antibiotic susceptibility test with antibiotic discs). Details: antibiotic discs on solid Mueller Hinton II medium, 37° C., 24 hours.
Assay type: cell-based
Protocol: The CJLP475 strain was inoculated into a liquid MRS medium and subjected to a static culture at 37° C. for 24 hours. The thus-cultured bacteria were soaked in sterilized cotton swabs and smeared on a solid Mueller Hinton II medium (Difco), and then antibiotic discs were placed on the medium and incubated at 37° C. for 24 hours. Ampicillin, clindamycin, gentamicin, kanamycin, erythromycin, ampicillin/sulbactam, chloramphenicol, and streptomycin discs (Oxoid, UK) were used as antibiotic discs for the antibiotic test.

Compound	Radius of Growth Inhibition Area Centered Around Antibiotics
CC1(C)S[C@@H]2[C@H](NC(=O)[C@H](N)c3ccccc3)C(=O)N2[C@H]1C(=O)O [Amp10 (Ampicillin), Ampicillin]	7 mm
CCC[C@@H]1C[C@@H](C(=O)N[C@@H]([C@H]2O[C@H](SC)[C@H](O)[C@@H](O)[C@H]2O)[C@H](C)Cl)N(C)C1 [C30 (Clindamycin), Clindamycin]	8 mm
[H]/N=C(/N)N[C@H]1[C@H](O)[C@@H](O)[C@H](O[C@@H]2O[C@@H](C)[C@](O)(C=O)[C@H]2O[C@@H]2O[C@@H](CO)[C@H](O)[C@@H](O)[C@@H]2NC)[C@@H](N/C(N)=N\[H])[C@@H]1O [DA2 (Streptomycin), Streptomycin]	4 mm
CC[C@H]1OC(=O)[C@H](C)[C@@H](O[C@H]2C[C@@](C)(OC)[C@@H](O)[C@H](C)O2)[C@H](C)[C@@H](O[C@@H]2O[C@H](C)C[C@H](N(C)C)[C@H]2O)[C@](C)(O)C[C@@H](C)C(=O)[C@H](C)[C@@H](O)[C@]1(C)O [E15 (Erythromycin), Erythromycin]	9 mm
NC[C@H]1O[C@H](O[C@H]2[C@H](O)[C@@H](O[C@H]3O[C@H](CO)[C@@H](O)[C@H](N)[C@H]3O)[C@H](N)C[C@@H]2N)[C@H](O)[C@@H](O)[C@@H]1O [K30 (Kanamycin), Kanamycin]	1.5 mm
O=C(N[C@H](CO)[C@H](O)c1ccc([N+](=O)[O-])cc1)C(Cl)Cl [S10 (Chloramphenicol), Chloramphenicol]	3 mm
Ampicillin/Sulbactam [SAM20 (Ampicillin/Sulbactam)]	8 mm
Gentamicin [CN120 (Gentamicin)]	9 mm
